Source: patent US20190240337A1, “EPINEPHRINE FORMULATIONS FOR MEDICINAL PRODUCTS” (priority 2013, published 2019)
Where two headings read alike, the source gives them in different places.

Settings: aqueous solution
Experimental: In addition, an equilibrium constant of inclusion complex between epinephrine and sulfobutyl ether β-cyclodextrin (SBE-CD) in aqueous solution was determined using a spectroscopy technique, i.e., UV spectrophotometer as shown in FIG. 1. The equilibrium constant (K) between epinephrine and SBE-CD was determined by increasing the molar concentration ratio of SBD-CD to epinephrine in solution and measuring the spectral shift (ΔA) as shown FIG. 2 at pH 3.5. The K value was derived from the slope and intercept of a linear relationship from a plot between [Epi][SBD-CD]/ΔA and [SBD-CD] according to the Hildebrand and Benesi equation as shown in FIG. 2 (Rong Liu, Editor, Water-Insoluble Drug Formulation, Interpharm Press, 2000; and F. Cramer et. al., The Formation of Inclusion Compounds of a-Cyclodextrin in Aqueous Solutions, J. Am. Chem. Soc., 89, 14-20, 1967, the disclosures of which are incorporated herein by reference in their entireties).

equilibrium constant (K) between epinephrine and SBE-CD (pH 3.5, room temperature): 488 M⁻¹ | equilibrium constant (K) between epinephrine and SBE-CD (pH 5.5): 111 M⁻¹
Compound: CNCC(O)c1ccc(O)c(O)c1 (single isomer, unassigned; (-)) [epinephrine, (−)-3,4-Dihydroxy-α-[(methylamino)methyl]benzyl alcohol]
